# Tests used:
# Assay type in all cases: binding
# [1] = target: T1, FZD1 (Homo sapiens, UniProt Q9UP38); experiment: NanoBRET screen HiBiT-FZD1 in HEK293; settings: FZD1
# T1 construct: purchased Promega (in-house HiBiT-GPCR construct library, NanoBRET)
# Procedure: (§1) Each tracer candidate was screened across the entire library of HiBiT-GPCR constructs using NanoBRET as the detection modality. As depicted in Figure 4A, the specificity of interactions was evaluated through decrease in BRET due to competitive displacement of a bound tracer by excess parental compound. Each tracer was analyzed for binding to each HiBiT-GPCR fusion in the absence and in the presence of competing parental compound. Briefly, HEK293 cells were transfected with HiBiT-GPCR constructs diluted into promoterless DNA to reduce expression and maximize translocation to the cell surface. Each tracer candidate was then screened at concentrations of 1 μM and 0.1 μM across cells expressing these fusions. Cells were treated for 1.5 h with tracer either alone or in the presence of 20 μM competing parental compound (i.e., control). BRET was measured upon addition of purified LgBiT and subsequent complementation with HiBiT genetically fused to a GPCR. The specificity of interactions was assessed through a decrease in BRET signal due to competitive displacement of the bound tracer. To further gauge the robustness of these interactions, the fold response over the control (i.e., BRETtracer/BRETcontrol) was calculated. We chose a 1.5-fold response, which translates to ≥7-fold signal over noise as the minimal threshold required to score an interaction as positive. […]. Below we highlight the screening results obtained for our exemplary fluorescent tracers based on Clozapine, Amitriptyline and AZD1283.
# (§2) HiBiT-GPCR DNA constructs were diluted in 10 mM Tris pH 8 to a final concentration of 0.01 μg/μL, arrayed in 96-well plates and stored at −20 °C. For transfection, HEK293 cells were suspended in Opti-MEM (without phenol red) supplemented with 2% fetal bovine serum (Seradigm) and 100 units/mL penicillin–streptomycin (Gibco) at a final concentration of 220,000 cells/mL and dispensed into white 96-well plates at 90 μL/well. Subsequent transfections and screens were carried using an Agilent Bravo Automated Liquid Handling Platform. First, the 96-well HiBiT DNA arrays were diluted 25-fold in Opti-MEM (without serum or phenol red) to a final concentration of 0.0004 μg/μL and 20 μL of the diluted DNAs were transferred into new 96-well plates. Next, promoterless carrier DNA (1 μg/μL) was diluted 25-fold (0.04 μg/μL) and then dispensed into the diluted arrays at 20 μL/well. Following brief mixing, Viafect transfection reagent (Promega) diluted 16-fold into Opti-MEM was dispensed into the plates at 40 μL/well. After mixing by pipetting, plates were incubated for 10 min on the pipetting station deck. The DNA-transfection reagent complexes were then added to plates containing cells. To facilitate the screen, 10 μL of DNA-transfection reagent complexes were added in duplicates to the top 4 and bottom 4 rows, resulting in two identical 48-well arrays per plate. Plates with transfected cells were incubated for 18–20 h at 37 °C/5% CO2. A screen of each tracer across the entire library using two different concentrations requires duplicate plates of transfected cells. Depending on the number of tracers being screened, transfections can be scaled up using the same ratios. The next day, for each tracer, four 20× screening solutions in tracer dilution buffer (Promega) were prepared: two duplicates at final concentration of 20 μM and two duplicates at a final concentration of 2 μM. A competing unmodified compound was added to one of each duplicate at a final concentration of 400 μM. The four resulting solutions were diluted 4-fold in Opti-MEM without serum or phenol red to generate 5× solutions (5 µM and 0.5 µM tracer +/− 100 μM competing compound). To screen the library, a BioTek MultiFlo FX liquid dispenser was used to dispense 22.5 µL of tracer solution to the top 4 rows and 22.5 µL tracer + competing compound solution to the 4 bottom rows. Plates were briefly mixed on an orbital shaker and incubated for 1.5 h at room temperature. […]
# [2] = target: T2, SMO (Homo sapiens, UniProt Q99835); experiment: NanoBRET screen HiBiT-SMO in HEK293; settings: SMO
# T2 construct: purchased Promega (in-house HiBiT-GPCR construct library, NanoBRET)
# T2 sequence (Q99835 28-787): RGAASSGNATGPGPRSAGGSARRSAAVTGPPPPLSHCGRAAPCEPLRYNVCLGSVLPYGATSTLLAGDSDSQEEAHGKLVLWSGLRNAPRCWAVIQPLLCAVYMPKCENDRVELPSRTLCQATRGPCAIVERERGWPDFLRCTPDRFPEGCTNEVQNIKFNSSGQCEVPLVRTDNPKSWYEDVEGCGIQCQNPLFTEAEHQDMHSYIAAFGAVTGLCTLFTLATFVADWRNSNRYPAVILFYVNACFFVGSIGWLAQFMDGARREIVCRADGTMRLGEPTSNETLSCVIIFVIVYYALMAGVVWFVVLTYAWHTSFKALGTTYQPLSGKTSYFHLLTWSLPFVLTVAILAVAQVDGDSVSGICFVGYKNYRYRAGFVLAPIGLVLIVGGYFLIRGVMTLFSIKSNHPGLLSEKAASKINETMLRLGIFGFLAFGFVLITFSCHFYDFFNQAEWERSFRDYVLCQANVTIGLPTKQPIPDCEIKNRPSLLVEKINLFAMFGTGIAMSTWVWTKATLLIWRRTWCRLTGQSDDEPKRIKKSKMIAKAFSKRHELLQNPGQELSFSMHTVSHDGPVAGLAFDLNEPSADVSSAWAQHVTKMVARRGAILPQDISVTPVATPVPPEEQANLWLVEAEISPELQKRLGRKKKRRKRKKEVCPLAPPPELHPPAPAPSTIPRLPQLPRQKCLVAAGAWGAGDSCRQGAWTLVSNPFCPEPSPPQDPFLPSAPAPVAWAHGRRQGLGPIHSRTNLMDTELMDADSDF
# Procedure: as §1, §2
# [3] = target: T3, FSHR (Homo sapiens, UniProt P23945); experiment: NanoBRET screen HiBiT-FSHR in HEK293; settings: FSHR
# T3 construct: purchased Promega (in-house HiBiT-GPCR construct library, NanoBRET)
# T3 sequence (P23945 18-695): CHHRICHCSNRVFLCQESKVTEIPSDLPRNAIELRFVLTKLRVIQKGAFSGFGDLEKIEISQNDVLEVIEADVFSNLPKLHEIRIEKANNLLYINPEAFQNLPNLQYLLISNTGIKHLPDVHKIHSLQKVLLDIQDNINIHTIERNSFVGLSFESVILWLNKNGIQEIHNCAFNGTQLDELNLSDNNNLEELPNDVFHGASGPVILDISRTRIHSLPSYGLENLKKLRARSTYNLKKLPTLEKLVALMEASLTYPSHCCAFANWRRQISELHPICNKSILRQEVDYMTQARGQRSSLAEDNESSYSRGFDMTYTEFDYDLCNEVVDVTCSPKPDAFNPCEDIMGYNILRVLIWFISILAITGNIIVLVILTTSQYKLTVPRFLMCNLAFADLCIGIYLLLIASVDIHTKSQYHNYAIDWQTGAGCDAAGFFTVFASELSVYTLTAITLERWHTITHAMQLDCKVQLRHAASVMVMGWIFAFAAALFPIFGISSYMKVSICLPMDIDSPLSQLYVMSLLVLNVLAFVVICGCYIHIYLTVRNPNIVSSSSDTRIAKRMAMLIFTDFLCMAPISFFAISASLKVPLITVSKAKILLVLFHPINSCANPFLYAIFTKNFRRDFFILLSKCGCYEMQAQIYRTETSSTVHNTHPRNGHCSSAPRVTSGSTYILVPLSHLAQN
# Procedure: as §1, §2
# [4] = target: T4, MLNR (Homo sapiens, UniProt O43193); experiment: NanoBRET screen HiBiT-MLNR in HEK293; settings: MLNR
# T4 construct: purchased Promega (in-house HiBiT-GPCR construct library, NanoBRET)
# T4 sequence (O43193 whole entry): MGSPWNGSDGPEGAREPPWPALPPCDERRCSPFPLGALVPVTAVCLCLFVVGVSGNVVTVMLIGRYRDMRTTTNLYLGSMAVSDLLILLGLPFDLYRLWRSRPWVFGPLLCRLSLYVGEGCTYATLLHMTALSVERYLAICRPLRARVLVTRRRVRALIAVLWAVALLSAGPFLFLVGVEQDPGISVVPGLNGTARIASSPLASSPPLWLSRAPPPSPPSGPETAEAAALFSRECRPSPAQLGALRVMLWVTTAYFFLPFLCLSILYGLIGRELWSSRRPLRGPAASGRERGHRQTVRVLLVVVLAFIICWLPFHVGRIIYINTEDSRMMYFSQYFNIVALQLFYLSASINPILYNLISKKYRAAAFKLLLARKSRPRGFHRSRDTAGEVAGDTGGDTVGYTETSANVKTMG
# Procedure: as §1, §2
# [5] = target: T5, F2RL1 (Homo sapiens, UniProt P55085); experiment: NanoBRET screen HiBiT-F2RL1 in HEK293; settings: F2RL1
# T5 construct: purchased Promega (in-house HiBiT-GPCR construct library, NanoBRET)
# T5 sequence (P55085 26-397): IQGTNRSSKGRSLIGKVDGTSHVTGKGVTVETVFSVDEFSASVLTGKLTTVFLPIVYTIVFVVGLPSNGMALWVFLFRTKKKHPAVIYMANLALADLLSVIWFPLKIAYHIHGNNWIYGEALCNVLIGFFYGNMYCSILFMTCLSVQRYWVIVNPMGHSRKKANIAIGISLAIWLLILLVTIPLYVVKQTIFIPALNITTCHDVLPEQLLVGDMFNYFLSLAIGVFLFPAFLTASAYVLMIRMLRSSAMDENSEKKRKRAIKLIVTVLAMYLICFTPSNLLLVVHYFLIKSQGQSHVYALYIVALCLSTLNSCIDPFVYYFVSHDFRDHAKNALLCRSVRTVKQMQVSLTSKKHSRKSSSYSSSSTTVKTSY
# Procedure: as §1, §2
# [6] = target: T6, SSTR3 (Homo sapiens, UniProt P32745); experiment: NanoBRET screen HiBiT-SSTR3 in HEK293; settings: SSTR3
# T6 construct: purchased Promega (in-house HiBiT-GPCR construct library, NanoBRET)
# T6 sequence (P32745 whole entry): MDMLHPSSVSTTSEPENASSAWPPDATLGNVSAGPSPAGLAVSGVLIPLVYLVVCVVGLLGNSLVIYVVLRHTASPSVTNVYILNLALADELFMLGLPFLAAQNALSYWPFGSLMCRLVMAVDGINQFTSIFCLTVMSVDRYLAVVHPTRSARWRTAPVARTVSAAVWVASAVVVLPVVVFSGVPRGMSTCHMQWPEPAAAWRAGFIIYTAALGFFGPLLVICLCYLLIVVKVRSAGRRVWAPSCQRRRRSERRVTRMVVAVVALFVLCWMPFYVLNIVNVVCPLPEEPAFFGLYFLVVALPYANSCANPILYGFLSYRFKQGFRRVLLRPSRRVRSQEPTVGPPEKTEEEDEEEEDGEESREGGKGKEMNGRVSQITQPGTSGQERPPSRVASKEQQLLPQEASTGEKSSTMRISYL
# Procedure: as §1, §2
# T1 sequence (Q9UP38 70-647): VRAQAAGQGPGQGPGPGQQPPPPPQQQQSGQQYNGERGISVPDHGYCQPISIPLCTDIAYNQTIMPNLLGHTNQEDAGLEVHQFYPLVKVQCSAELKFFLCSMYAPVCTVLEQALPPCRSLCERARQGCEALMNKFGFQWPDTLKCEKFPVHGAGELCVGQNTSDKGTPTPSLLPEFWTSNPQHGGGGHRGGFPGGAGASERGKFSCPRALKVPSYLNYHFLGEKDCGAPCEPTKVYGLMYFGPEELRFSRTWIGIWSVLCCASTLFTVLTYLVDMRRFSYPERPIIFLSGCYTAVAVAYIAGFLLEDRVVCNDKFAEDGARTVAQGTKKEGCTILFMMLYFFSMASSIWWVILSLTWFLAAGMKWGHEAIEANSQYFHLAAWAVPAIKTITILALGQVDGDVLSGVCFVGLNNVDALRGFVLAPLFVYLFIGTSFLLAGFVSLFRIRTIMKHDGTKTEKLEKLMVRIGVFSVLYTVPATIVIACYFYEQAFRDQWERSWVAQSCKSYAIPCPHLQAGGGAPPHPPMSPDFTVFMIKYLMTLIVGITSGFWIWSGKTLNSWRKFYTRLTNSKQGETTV
SMILES,NanoBRET Fold Response ([1]; tracer 0.1μM),NanoBRET Fold Response ([1]; tracer 1μM),NanoBRET Fold Response ([2]; tracer 0.1μM),NanoBRET Fold Response ([2]; tracer 1μM),NanoBRET Fold Response ([3]; tracer 0.1μM),NanoBRET Fold Response ([3]; tracer 1μM),NanoBRET Fold Response ([4]; tracer 0.1μM),NanoBRET Fold Response ([4]; tracer 1μM),NanoBRET Fold Response ([5]; tracer 0.1μM),NanoBRET Fold Response ([5]; tracer 1μM),NanoBRET Fold Response ([6]; tracer 0.1μM),NanoBRET Fold Response ([6]; tracer 1μM)
O=C(CCc1ccc2n1[B-](F)(F)[N+]1=C(c3ccc[nH]3)C=CC1=C2)NCCOCCOCCNC(=O)OCCOCCN1CCN(C2=Nc3ccccc3Sc3ccccc32)CC1 [Quetiapine-a-2-NB590],1.14,0.96,0.94,0.96,0.89,1.07,1.02,0.86,0.88,0.71,0.96,0.74
Cc1nc2n(c(=O)c1CCN1CCC(c3noc4cc(F)ccc34)CC1)CCCC2OC(=O)NCCOCCOCCOCCOCCNC(=O)CCc1ccc2n1[B-](F)(F)[N+]1=C(c3ccc[nH]3)C=CC1=C2 (stereo not drawn) [Risperidone-2-NB590],1.02,1.00,0.86,1.00,0.95,1.23,0.93,0.97,1.00,0.94,0.92,0.99
CC(C)N(CC[C@H](c1ccccc1)c1cc(CCNC(=O)CCOCCOCCOCCOCCNC(=O)CCc2ccc3n2[B-](F)(F)[N+]2=C(c4ccc[nH]4)C=CC2=C3)ccc1O)C(C)C [Tolterodine-2-NB590],0.97,0.97,0.73,0.83,0.78,1.08,0.87,1.15,1.07,1.03,1.08,1.17
CC(C)N(CC[C@H](c1ccccc1)c1cc(CCNC(=O)c2ccc(CNC(=O)CCc3ccc4n3[B-](F)(F)[N+]3=C(c5ccc[nH]5)C=CC3=C4)cc2)ccc1O)C(C)C [Tolterodine-BZ-NB590],1.04,0.95,0.93,0.94,1.08,1.09,1.06,1.05,0.97,0.98,1.01,1.04
CCCn1c(=O)c2[nH]c(-c3ccc(OCC(=O)NCCNC(=O)CCOCCNC(=O)c4ccc(CNC(=O)CCc5ccc6n5[B-](F)(F)[N+]5=C(c7ccc[nH]7)C=CC5=C6)cc4)cc3)nc2n(CCC)c1=O [XAC-3-NB590],0.78,1.33,1.01,1.05,1.18,1.04,0.99,0.91,1.04,0.97,0.99,0.98

# — PMC8151276, “An Integrated Approach toward NanoBRET Tracers for Analysis of GPCR Ligand Engagement” (Molecules, 2021)
